Reference: ChEMBL document CHEMBL4765407, “Design, synthesis and high antitumor potential of new unsymmetrical bisacridine derivatives towards human solid tumors, specifically pancreatic cancers and their unique ability to stabilize DNA G-quadruplexes” (Eur J Med Chem, 2020)
pIC50: −log10 of the molar value.

What was measured:
W256 [1] = assay: Antitumour activity against Walker 256 adenocarcinoma cells implanted in Wistar rat assessed as increase in animal survival rate by measuring T/C ratio at 40 mg/kg, ip qd for 3 days administered on day 3,4,5 after tumor cell transplantation; assay type: functional; settings: time 3 day
HT-29 [2] = assay: Cytotoxicity against human HT-29 cells assessed as reduction in cell viability measured after 72 hrs by SRB assay; assay type: functional, cell-based; settings: HT-29, 72 h
DU-145 [3] = assay: Cytotoxicity against human DU-145 cells assessed as reduction in cell viability measured after 72 hrs by SRB assay; assay type: functional, cell-based; settings: DU-145, 72 h
LNCaP = assay: Cytotoxicity against human LNCaP cells assessed as reduction in cell viability measured after 72 hrs by SRB assay; assay type: functional, cell-based
PANC-1 [4] = assay: Cytotoxicity against human PANC-1 cells assessed as reduction in cell viability measured after 72 hrs by SRB assay; assay type: functional, cell-based; settings: PANC-1, 72 h
MDA-MB-231 = assay: Cytotoxicity against human MDA-MB-231 cells assessed as reduction in cell viability measured after 72 hrs by SRB assay; assay type: functional, cell-based; settings: MDA-MB-231, 72 h
W256 [5] = assay: Antitumour activity against Walker 256 adenocarcinoma cells implanted in Wistar rat assessed as increase in animal survival rate by measuring T/C ratio at 4 mg/kg, ip qd for 3 days administered on day 3,4,5 after tumor cell transplantation; assay type: functional; settings: time 3 day
Quadruplex DNA [6] = assay: Stabilization of 5'-FAM/3'-TAMRA labeled telomeric G4 quadruplex DNA F21T (unknown origin) assessed as change in melting temperature at 10 microM measured after 15 mins by FRET assay; assay type: nucleic-acid assay
ASPC1 = assay: Cytotoxicity against human ASPC1 cells assessed as reduction in cell viability measured after 72 hrs by SRB assay; assay type: functional, cell-based; settings: ASPC1, 72 h
HCT-116 = assay: Cytotoxicity against human HCT-116 cells assessed as reduction in cell viability measured after 72 hrs by SRB assay; assay type: functional, cell-based; settings: HCT-116, 72 h
UMUC3 [7] = assay: Cytotoxicity against human UMUC3 cells assessed as reduction in cell viability measured after 72 hrs by SRB assay; assay type: functional, cell-based; settings: UMUC3, 72 h
Quadruplex DNA [8] = assay: Stabilization of 5'-FAM/3'-TAMRA labeled c-Myc promoter G4 quadruplex DNA FPu18 (unknown origin) assessed as change in melting temperature at 10 microM measured after 15 mins by FRET assay; assay type: nucleic-acid assay
HT-29 [9] = assay: Antitumour activity against human HT-29 cells xenografted in Crl:Nu-Foxnl nu mouse assessed as inhibition of tumour growth at total effective dose of 24 mg/kg, iv measured on day 21; assay type: functional; settings: HT-29, iv, 504 h, time 21 day, read-out: TGI
NCI-H460 [10] = assay: Cytotoxicity against human NCI-H460 cells assessed as reduction in cell viability measured after 72 hrs by SRB assay; assay type: functional, cell-based; settings: NCI-H460, 72 h
Quadruplex DNA [11] = assay: Stabilization of 5'-FAM/3'-TAMRA labeled K-Ras G4 quadruplex DNA (unknown origin) assessed as change in melting temperature at 10 microM measured after 15 mins by FRET assay; assay type: nucleic-acid assay
MIA PaCa-2 = assay: Cytotoxicity against human MIA PaCa-2 cells assessed as reduction in cell viability measured after 72 hrs by SRB assay; assay type: functional, cell-based; settings: MIA PaCa-2, 72 h
HT-29 [12] = assay: Antitumour activity against human HT-29 cells xenografted in Crl:Nu-Foxnl nu mouse assessed as inhibition of tumour growth at total effective dose of 24 mg/kg, ip measured on day 21; assay type: functional; settings: HT-29, ip, 504 h, time 21 day, read-out: TGI
[13] = Stabilization of ds 5'-FAM-d(TATAGCTATA-HEG-TATAGCTATA)-TAMRA-3' (unknown origin) assessed as change in melting temperature at 10 microM measured after 15 mins by FRET assay; settings: Homo sapiens
MCF7 = assay: Cytotoxicity against human MCF7 cells assessed as reduction in cell viability measured after 72 hrs by SRB assay; assay type: functional, cell-based; settings: MCF7, 72 h
NCI-H460 [14] = assay: Antitumour activity against human NCI-H460 cells xenografted in Crl:Nu-Foxnl nu mouse assessed as inhibition of tumour growth at total effective dose of 30 mg/kg, iv measured on day 14; assay type: functional; settings: 336 h, time 14 day, read-out: TGI
PC-3 = assay: Cytotoxicity against human PC-3 cells assessed as reduction in cell viability measured after 72 hrs by SRB assay; assay type: functional, cell-based; settings: PC-3, 72 h
W256 [15] = assay: Antitumour activity against Walker 256 adenocarcinoma cells implanted in Wistar rat assessed as increase in animal survival rate by measuring T/C ratio at 5 mg/kg, ip qd for 3 days administered on day 3,4,5 after tumor cell transplantation; assay type: functional; settings: time 3 day
W256 [16] = assay: Antitumour activity against Walker 256 adenocarcinoma cells implanted in Wistar rat assessed as increase in animal survival rate by measuring T/C ratio at 10 mg/kg, ip qd for 3 days administered on day 3,4,5 after tumor cell transplantation; assay type: functional; settings: time 3 day
DU-145 [17] = assay: Antitumour activity against human DU-145 cells xenografted in Crl:Nu-Foxnl nu mouse assessed as inhibition of tumour growth at total effective dose of 40 mg/kg, ip measured on day 35; assay type: functional; settings: DU-145, ip, 840 h, time 35 day, read-out: TGI
PANC-1 [18] = assay: Antitumour activity against human PANC-1 cells xenografted in Crl:Nu-Foxnl nu mouse assessed as inhibition of tumour growth at total effective dose of 16 mg/kg, iv measured on day 37; assay type: functional; settings: PANC-1, iv, 888 h, time 37 day, read-out: TGI
UMUC3 [19] = assay: Antitumour activity against human UMUC3 cells xenografted in Crl:Nu-Foxnl nu mouse assessed as inhibition of tumour growth at total effective dose of 14 mg/kg, iv measured on day 23; assay type: functional; settings: 552 h, time 23 day, read-out: TGI

SMILES | pIC50 (HT-29 [2]) | pIC50 (DU-145 [3]) | pIC50 (LNCaP) | pIC50 (PANC-1 [4]) | pIC50 (MDA-MB-231) | ΔTm (Quadruplex DNA [6]) [°C] | pIC50 (HCT-116) | ΔTm (Quadruplex DNA [8]) [°C] | pIC50 (NCI-H460 [10]) | ΔTm (Quadruplex DNA [11]) [°C] | other results
Cc1ccc([N+](=O)[O-])c2c(NCCNCCNc3ccc(C)c4[nH]c5ccccc5c(=O)c34)c3ccccc3nc12 | 6.38 | 6.22 | 6.60 |  |  |  |  |  |  |  | T/C (W256 [1]): 250%
Cc1ccc(NCCCN(C)CCCNc2c3ccccc3nc3cccc([N+](=O)[O-])c23)c2c(=O)c3ccccc3[nH]c12 | 7.31 | 7.60 |  | 7.40 | 7.41 |  |  |  |  |  | 
O=c1c2cc(O)ccc2[nH]c2c([N+](=O)[O-])ccc(NCCCN3CCN(CCCNc4c5ccccc5nc5cccc([N+](=O)[O-])c45)CC3)c12 | 7.42 | 7.70 | 6.93 | 7.37 | 7.92 | 16 | 7.96 | 32.6 | 7.70 | 26.6 | T/C (W256 [5]): 300%; pIC50 (ASPC1): 6.68; pIC50 (UMUC3 [7]): 7.48; inhibition in vivo at 24 mg/kg (HT-29 [9]): 39%; pIC50 (MIA PaCa-2): 7.92; inhibition in vivo at 24 mg/kg (HT-29 [12]): 25%; ΔTm [13]: 3.3 °C; pIC50 (MCF7): 7.21; inhibition in vivo at 30 mg/kg (NCI-H460 [14]): 24%; pIC50 (PC-3): 7.51
Cc1ccc([N+](=O)[O-])c2c(NCCCN(C)CCCNc3ccc(C)c4[nH]c5ccccc5c(=O)c34)c3ccccc3nc12 | 6.91 | 6.72 | 6.71 |  |  |  | 6.92 |  | 7.15 |  | T/C (W256 [15]): 1300%
Cc1ccc([N+](=O)[O-])c2c(NCCCNCCCNc3ccc([N+](=O)[O-])c4[nH]c5ccc(O)cc5c(=O)c34)c3ccccc3nc12 | 6.89 | 7.11 | 6.91 |  |  |  | 7.06 |  | 7.14 |  | T/C (W256 [16]): 1500%
NC(CCN1CCN(CCCNc2ccc3nnn4c5ccc(O)cc5c(=O)c2c34)CC1)c1ccc2nc3ccccc3cc2c1[N+](=O)[O-] (stereo unspecified) |  | 7.77 |  | 7.44 | 7.54 | 27.5 |  | 37.5 |  | 36.5 | pIC50 (ASPC1): 6.86; pIC50 (MIA PaCa-2): 7.77; ΔTm [13]: 5.9 °C
Cc1ccc(NCCNCCNc2c3ccccc3nc3cccc([N+](=O)[O-])c23)c2c(=O)c3ccccc3[nH]c12 | 6.86 | 6.61 | 6.60 | 6.67 | 6.86 | 37.7 |  | 28.5 |  | 28.1 | T/C (W256 [5]): 350%; inhibition in vivo at 40 mg/kg (DU-145 [17]): 61%; inhibition in vivo at 16 mg/kg (PANC-1 [18]): 75%; inhibition in vivo at 14 mg/kg (UMUC3 [19]): 46%
Cc1ccc([N+](=O)[O-])c2c(NCCNc3ccc(C)c4[nH]c5ccccc5c(=O)c34)c3ccccc3nc12 | 5.93 | 6.38 |  |  |  |  | 5.90 |  | 6.43 |  | T/C (W256 [15]): 750%
